Test results as given in ChEMBL document CHEMBL3124819, “2',4'-Difluoro-2'-methyl Substituted Nucleoside Derivatives as Inhibitors of HCV RNA Replication” (ACS Med Chem Lett, 2014).

Assays:
[1] = Cytotoxicity against human HuH7 cells after 2 hrs by WST-1 assay relative to control; assay type: cell-based, Huh-7
Hepatitis C virus = test: Antiviral activity against HCV genotype 1b infected in human HuH7 cells assessed as inhibition of viral RNA replication after 3 days by luciferase reporter gene assay; assay type: functional, organism-based, Hepacivirus hominis; details: Huh-7, 72 h

SMILES	CC50 at 2 h [1]	IC50 (Hepatitis C virus)
CCC(=O)O[C@H]1[C@@](C)(F)[C@H](n2ccc(=O)[nH]c2=O)O[C@]1(F)COP(=O)(N[C@@H](C)C(=O)OC(C)C)Oc1cccc2ccccc12 (stereo partly specified)	67.8 µM	0.151 µM
CC(C)OC(=O)[C@H](C)NP(=O)(OC[C@@]1(F)O[C@@H](n2ccc(=O)[nH]c2=O)[C@](C)(F)[C@@H]1O)Oc1ccc2ccccc2c1 (stereo partly specified)	> 100 µM	–
CC(C)OC(=O)[C@H](C)NP(=O)(OC[C@@]1(F)O[C@@H](n2ccc(=O)[nH]c2=O)[C@](C)(F)[C@@H]1O)Oc1cccc2ccccc12 (stereo partly specified)	> 100 µM	0.115 µM
CC(C)OC(=O)[C@H](C)NP(=O)(OC[C@@]1(F)O[C@@H](n2ccc(=O)[nH]c2=O)[C@](C)(F)[C@@H]1O)Oc1ccccc1 (stereo partly specified)	> 100 µM	–
